Results from patent US6417164B1, “Treatment of type II diabetes mellitus with amylin agonists” (Amylin Pharmaceuticals, Inc., priority 1995, dated 2002).
Ends that are not written are not given here.

Key:
[1] = Solubility and stability characteristics compared to human amylin; assay type: physicochemical
From the text: (§1) These preferred compounds include ^25Pro^26Val^28,29Pro-h-amylin, ^25,28,29Pro-h-amylin (also referred to herein as “AC-0137”), and ^18Arg^25,28Pro-h-amylin.

[2] = tested on: insulin-stimulated glycogen synthesis in soleus muscle; assay: Soleus muscle assay; parameters: species or system rat
Protocol: Assays of biological activity of amylin agonists, including amylin agonist analogue preparations, in the soleus muscle are performed using previously described methods (Leighton, B. and Cooper, G. J. S., Nature, 335:632-635 (1988); Cooper, G. J. S., et al. Proc. Natl. Acad. Sci. USA 85:7763-7766 (1988)). In summary, amylin agonist activity is assessed by measuring the inhibition of insulin-stimulated glycogen synthesis in soleus muscle. Amylin antagonist activity is assessed by measuring the resumption of insulin-stimulated glycogen synthesis in the presence of 100 nM rat amylin and an amylin antagonist. Concentrations of peptide dissolved in carrier-free buffers are determined by quantitative amino acid analysis, as described therein. The ability of compounds to act as agonists in this assay is determined by measuring EC50 values. Standard errors are determined by fitting of sigmoidal dose response curves using a four parameter logistic equation (De Lean, A., Munson, P. J., Guardabasso, V. and Rodbard, D. (1988) ALLFIT, Version 2.7, National Institute of Child Health and Human Development, N.I.H. Bethesda, Md., 1 diskette). A number of amylin agonists have been characterized using these biological assays.

[3] = molecular target: T1, membrane-bound amylin receptors (Rattus norvegicus, UniProt P32214+Q9JJ74); assay: Receptor binding assay (competition with 125I Bolton Hunter rat amylin)
T1 construct: A preferred source of the membrane preparations used in the assay is the basal forebrain which comprises membranes from the nucleus accumbens; from tissue; host or cells: basal forebrain membranes (nucleus accumbens and surrounding regions)
T1 sequence (P32214 25-516): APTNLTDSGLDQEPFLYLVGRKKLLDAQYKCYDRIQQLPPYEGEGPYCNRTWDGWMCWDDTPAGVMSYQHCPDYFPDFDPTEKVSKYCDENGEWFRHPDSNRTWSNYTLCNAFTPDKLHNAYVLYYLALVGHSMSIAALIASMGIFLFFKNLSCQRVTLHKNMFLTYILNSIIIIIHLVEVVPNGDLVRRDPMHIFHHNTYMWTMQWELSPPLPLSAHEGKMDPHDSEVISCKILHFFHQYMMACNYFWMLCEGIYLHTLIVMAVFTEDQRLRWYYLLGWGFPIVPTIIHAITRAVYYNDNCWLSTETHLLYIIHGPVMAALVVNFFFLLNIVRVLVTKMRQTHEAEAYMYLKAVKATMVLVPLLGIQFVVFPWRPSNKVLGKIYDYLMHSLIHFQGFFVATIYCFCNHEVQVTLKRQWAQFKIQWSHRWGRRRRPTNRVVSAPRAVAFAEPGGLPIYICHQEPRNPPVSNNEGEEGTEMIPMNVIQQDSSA
T1 sequence (Q9JJ74 27-148): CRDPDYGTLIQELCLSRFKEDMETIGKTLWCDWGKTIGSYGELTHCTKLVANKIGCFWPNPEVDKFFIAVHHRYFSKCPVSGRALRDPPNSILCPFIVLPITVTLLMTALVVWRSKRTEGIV
From the text: The receptor binding assay is described in U.S. Pat. No. 5,264,372, issued Nov. 23, 1993, the disclosure of which is incorporated herein by reference. The receptor binding assay is a competition assay which measures the ability of compounds to bind specifically to membrane-bound amylin receptors. A preferred source of the membrane preparations used in the assay is the basal forebrain which comprises membranes from the nucleus accumbens and surrounding regions. Compounds being assayed compete for binding to these receptor preparations with ^125I Bolton Hunter rat amylin. Competition curves, wherein the amount bound (B) is plotted as a function of the log of the concentration of ligand are analyzed by computer, using analyses by nonlinear regression to a 4-parameter logistic equation (Inplot program; GraphPAD Software, San Diego, Calif.) or the ALLFIT program of DeLean et. al. (ALLFIT, Version 2.7 (NIH, Bethesda, Md. 20892)). Munson, P. and Rodbard, D., Anal. Biochem. 107:220-239 (1980).

[4] = tested on: treated test animals; assay: Amylin activity in vivo in treated test animals
From the text: as §1

Row | Compound | stability characteristics [1] | competition with amylin in the receptor binding assay [3] | amylin agonist action in the soleus muscle assay [2] | antagonist activity as measured by the soleus muscle assay [2] | amylin activity in vivo [4]
1 | CC[C@H](C)[C@H](NC(=O)[C@@H]1CCCN1C(=O)CNC(=O)[C@H](Cc1ccccc1)NC(=O)[C@H](CC(N)=O)NC(=O)[C@H](CC(N)=O)NC(=O)[C@H](CO)NC(=O)[C@H](CO)NC(=O)[C@H](Cc1c[nH]cn1)NC(=O)[C@@H](NC(=O)[C@H](CC(C)C)NC(=O)[C@H](Cc1ccccc1)NC(=O)[C@H](CC(N)=O)NC(=O)[C@H](C)NC(=O)[C@H](CC(C)C)NC(=O)[C@H](CCCNC(=N)N)NC(=O)[C@H](CCC(N)=O)NC(=O)[C@@H](NC(=O)[C@H](C)NC(=O)[C@@H]1CSSC[C@H](NC(=O)[C@@H](N)CCCCN)C(=O)N[C@@H](CC(N)=O)C(=O)N[C@@H]([C@@H](C)O)C(=O)N[C@@H](C)C(=O)N[C@@H]([C@@H](C)O)C(=O)N1)[C@@H](C)O)C(C)C)C(=O)N[C@@H](CC(C)C)C(=O)N1CCC[C@H]1C(=O)N1CCC[C@H]1C(=O)N[C@H](C(=O)N[C@@H](CC(N)=O)C(=O)N[C@H](C(=O)NCC(=O)N[C@@H](CO)C(=O)N[C@@H](CC(N)=O)C(=O)N[C@H](C(=O)N[C@@H](Cc1ccc(O)cc1)C(N)=O)[C@@H](C)O)C(C)C)[C@@H](C)O [AC137, ^25,28,29Pro-h-amylin] | more desirable | – | – | – | –
2 | ^25Pro^26Val^25,28Pro-h-amylin | – | found to compete with amylin | shown to act as amylin agonists | negligible antagonist activity | –
3 | ^28Pro-h-amylin (KCNTATCATQRLANFLVHSSNNFGAILPSTNVGSNTY; ends and bridges not checked; cysteine pairing not given here; UniProt P10997 34-70, looked up, variant S28P) [amylin agonist analogue of human amylin] | – | – | – | – | marked hyperlactemia followed by hyperglycemia
4 | des-^1Lys-h-amylin [des-^1Lys-hamylin] | – | – | – | – | marked hyperlactemia followed by hyperglycemia

Continued, in another order:

Row | stability characteristics [1] | competition with amylin in the receptor binding assay [3] | Compound | amylin agonist action in the soleus muscle assay [2] | antagonist activity as measured by the soleus muscle assay [2] | amylin activity in vivo [4]
5 | – | found to compete with amylin | ^18Arg^25,28,29Pro-h-amylin | shown to act as amylin agonists | negligible antagonist activity | –
6 | – | found to compete with amylin | des-^1Lys^18Arg^25,28,29Pro-h-amylin | shown to act as amylin agonists | negligible antagonist activity | –
7 | – | found to compete with amylin | des-^1Lys^18Arg^25,28Pro-h-amylin | shown to act as amylin agonists | negligible antagonist activity | marked hyperlactemia followed by hyperglycemia
8 | – | found to compete with amylin | des-^1Lys^25,28,29Pro-h-amylin | shown to act as amylin agonists | negligible antagonist activity | –
